The source of these data is patent US10294217B2, “Fluoroindole derivatives as muscarinic M1 receptor positive allosteric modulators” (Suven Life Sciences Limited, priority 2015, dated 2019).

Structures are written as SMILES. Like-named read-outs stand apart in the source and are kept apart here.

The subject of series [1] is Male Wistar rats. The series can be described thus: Object recognition task model - scopolamine challenge. It counts as in vivo. The note with it: p.o.; for Exploration time Familiar object / Exploration time Novel object: mean ± S.E.M, choice trial 3 minutes after T1. As for the experimental part: Object Recognition Task Model—Scopolamine challenge
The cognition enhancing properties of compounds of this invention were estimated by using this model.
Male Wistar rats (8-10 weeks old) were used as experimental animals. Four animals were housed in each cage. Animals were kept on 20% food deprivation from a day prior to experimentation. Water was provided ad libitum throughout the experiment. Animals were maintained on a 12 hours light/dark cycle in temperature and humidity controlled room. The experiment was carried out in an open field made up of acrylic. Rats were habituated to individual arenas (open field) for 1 hour in the absence of any objects on day 1.
Rats received vehicle or vehicle and scopolamine or compound of the formula (I) and scopolamine, before the familiar (T1). During the familiarization phase, (T1), the rats were placed individually in the arena for 3 minutes, in which two identical objects (a1 and a2) were positioned 10 cm from the wall. 3 minutes after T1, trial for memory test was performed. The same rats were placed in the same arena as they were placed in T1 trial. During the choice phase (T2) rats were allowed to explore the arena for 3 minutes in presence of a copy of familiar object (a3) and one novel object (b). During the T1 and T2 trial, explorations of each object (defined as sniffing, licking, chewing or having moving vibrissae whilst directing the nose towards the object at a distance of less than 1 cm) were recorded using stopwatch. • T1 is the total time spent exploring the familiar objects (a1+a2). • T2 is the total time spent exploring the familiar object and novel object (a3+b). • Discriminative index=Time spent with novel object/(time spent with novel and familiar object).

Series [2] in a line: Protein binding assay (HT dialysis), rat matrices. The format is in vitro ADME. The note with it: Mean ± SEM. As to the method: Unbound fractions of new chemical entities in plasma, brain homogenate and liver microsomes were determined using high-throughput dialysis (HT dialysis). Briefly, dialysis membranes were soaked in deionized water for 20 minutes and then in deionized water with 30% ethanol for 15 minutes and finally in phosphate buffer until use. Membranes were rinsed in phosphate buffer before assembling. The membranes were layered between teflon bars of dialysis assembly. Stock solutions of test compounds were prepared at 10 mM in DMSO, diluted to 1 mM in acetonitrile and further diluted to 100 μM in mixture of water and acetonitrile (1:1 v/v). Human plasma (pool of 3) was prepared from human blood (3 donors) by centrifuging at 4000 rpm for 10 min at 4° C. Rat and dog blood were obtained on the day of the study and centrifuged to obtain plasma. Rat brains were isolated, cleaned and homogenized with 2 volumes of buffer (3 fold dilution). Liver microsomes were prepared at 0.5 mg/mL in phosphate buffer (100 mM, pH 7.4). The dialysate chambers were loaded with 150 μL of 100 mM phosphate buffer (pH 7.4) in triplicates. The matrix chambers were loaded with 150 μL of the plasma or brain homogenate or microsomal suspension spiked with test compounds at a final concentration of 1 μM. 50 μL of the sample was removed from both the chambers at 0 h. The plate was sealed and incubated at 37° C. for 6 h at 100 rpm. After 6 h, 50 μL of the sample was removed from both the chambers. Equal volumes of buffer or human plasma/microsomal suspension were added to the plasma/microsomal and buffer samples respectively to create identical sample matrices for analysis. The samples were precipitated with 150 μL of acetonitrile containing fluoxetine as an internal standard. All the samples were centrifuged at 10000 rpm for 10 minutes at 4° C.

For series [3], the system named is sAPPα. Kind of series: Estimation of cortical sAPPα levels in rat brain (ELISA). It counts as in vivo, Male Wistar rats. To be noted: i.p.; for sAPPα levels: cortex, 60 minutes after treatment, mean ± SEM (n = 5/group); for Inference: cortical sAPPα levels, 1.0-10.0 mg/kg. As to the method: Estimation of Cortical sAPPα Levels in Rat Brain
Male Wistar rats (250±45 grams) were randomly divided into different treatment groups (n=5 per group). Control group of rats were administered with intraperitoneal (i.p.) injection of vehicle (99.75% of 0.25% hydroxyethylcellulose HHX+0.25% tween 80 for examples 8 and 22; 5% Pharmasolve+45% propylene glycol+50% polyethylene glycol-400 for example 1). Rats in treatment groups were allocated to one dose of test compound and administered with a single intraperitoneal injection of test compound (dose volume of 2 mL/kg). Rats were sacrificed by cervical dislocation at 60 minutes after treatment. Brains were quickly isolated and the cortex was dissected out at −20° C. The cortex was immediately kept on a dry ice and weighed before being stored at −80° C. until quantification of sAPPα using Enzyme-linked immunosorbent assay (ELISA).
• 1. Protease inhibitor cocktail tablets (complete mini, Make-Roche; 1 tablet for 8 mL) were added to the Tris Buffer Saline (TBS) prior to using the buffer for tissue processing. • 2. Cortical tissues were thawed and homogenized in five volumes of TBS and the solution was centrifuged at 15,000 rpm at 4° C. for 90 minutes. • 3. The supernatant was discarded and homogenized in five volumes of TBS. Samples were centrifuged at 15,000 rpm at 4° C. for 30 minutes. • 4. Supernatant was discarded and precipitate was sonicated in ten volumes of 50 mM Tris buffer (pH: 7.6) containing 6 M of Guanidine-HCl. Sonication was repeated four times with duration of five seconds every time. • 5. Resulting mixture was incubated at the room temperature for 30 minutes and centrifuged at 15,000 rpm at 4° C. for 30 minutes. Supernatant was diluted 100 times with EIA buffer prior to addition in the pre-coated ELISA plates. Measurement of sAPPα by ELISA Kit:
To investigate the role of an acute treatment of test compound on sAPPα levels, the expression of this protein was measured in samples obtained from brain homogenates of treated and untreated rats by employing ELISA assay. The entire procedure was followed as described in the ELISA kit manual (Mouse/Rat sAPPα (highly sensitive) assay kit, Catalog Number: JP27419, Immuno-Biological Laboratories Co. Ltd, Hamburg, Germany).
Statistical analyses were performed using the Graph Pad Prism (Version 4). Results are expressed as Mean±SEM levels of sAPPα expressed as percentage of control values obtained from rats treated with vehicle. Statistical significance after treatment was assessed using One-Way ANOVA followed by Dunnett's post test and the significance level was set below p value less than 0.05 and the results are tabulated in table 7.

Where [4] appears, read: pH 7.4, Rat brain homogenate, 37° C., n = 3, read-out: Fu Brain.
Where [5] appears, read: pH 7.4, Rat liver microsomes 0.5 mg/mL, n = 3, read-out: Fu Microsomes.
The mark [6] stands for this setting: pH 7.4, Rat plasma, 37° C., n = 3, read-out: Fu Plasma.

`Cl.O=C(N[C@H]1CCNC[C@H]1F)c1cn(Cc2ccnc(F)c2)c2c(F)ccc(F)c12` (single isomer, unassigned; isomer-i) [Example 22, Cis-N-(3-Fluoropiperidin-4-yl)-1-(2-fluoropyridin-4-ylmethyl)-4,7-difluoro-1H-indole-3-carboxamide hydrochloride (Isomer-I)]: the Inference entry in series [1] (1 mg/kg) and in series [3] was “Active” each time. Also, in series [1] (1 mg/kg), the “Exploration time Familiar object” value stood at 21.34 ± 3.65 s. Also, the “Exploration time Novel object” value in series [1] (1 mg/kg) is 29.70 ± 1.72 s. Further, the fraction unbound at 6 h, 1 μM turned out to be 0.067 ± 0.002 in series [2] (setting [4]), 0.902 ± 0.006 in series [2] (setting [5]) and 0.315 ± 0.03 in series [2] (setting [6]). The sAPPα levels is listed as 143 ± 14 % of vehicle in series [3] (1.0 mg/kg), 164 ± 12 % of vehicle in series [3] (3.0 mg/kg) and 176 ± 10 % of vehicle in series [3] (10.0 mg/kg).
`Cn1cc(Cn2cc(C(=O)N[C@H]3CCCC[C@@H]3O)c3c(F)cccc32)cn1` [Example 1, N-[(1S,2S)-2-Hydroxycyclohexyl]-1-(1-methyl-1H-pyrazol-4-ylmethyl)-4-fluoro-1H-indole-3-carboxamide]: the Inference entry in series [1] (0.3 mg/kg) and in series [3] was “Active” throughout. In series [1] (0.3 mg/kg), the “Exploration time Familiar object” value worked out at 7.54 ± 1.93 s. Besides, the “Exploration time Novel object” value in series [1] (0.3 mg/kg) came out at 13.07 ± 1.79 s. The fraction unbound at 6 h, 1 μM is 0.166 ± 0.01 in series [2] (setting [4]), 0.836 ± 0.04 in series [2] (setting [5]) and 0.267 ± 0.03 in series [2] (setting [6]). For the same compound, the sAPPα levels is recorded as 155 ± 6 % of vehicle in series [3] (1.0 mg/kg), 153 ± 7 % of vehicle in series [3] (3.0 mg/kg) and 142 ± 6 % of vehicle in series [3] (10.0 mg/kg).
Regarding `O=C(N[C@H]1CCCC[C@@H]1O)c1cn(Cc2ccnc(Cl)c2)c2cccc(F)c12` [Example 2, N-[(1S,2S)-2-Hydroxycyclohexyl]-1-(2-chloropyridin-4-ylmethyl)-4-fluoro-1H-indole-3-carboxamide], in series [1] (0.3 mg/kg), the Inference entry was “Active”, the “Exploration time Familiar object” value was 14.29 ± 1.92 s and the “Exploration time Novel object” value amounted to 20.93 ± 2.89 s. Moreover, in series [2] (setting [4]), the fraction unbound at 6 h, 1 μM was 0.015 ± 0.001. Also, the fraction unbound at 6 h, 1 μM in series [2] (setting [5]) was found to be 0.679 ± 0.081. In series [2] (setting [6]), the fraction unbound at 6 h, 1 μM was 0.068 ± 0.002.
Regarding `Cn1cc(Cn2cc(C(=O)N[C@H]3CCCC[C@@H]3O)c3c(F)ccc(F)c32)cn1` [Example 5, N-[(1S,2S)-2-Hydroxycyclohexyl]-1-(1-methyl-1H-pyrazol-4-ylmethyl)-4,7-difluoro-1H-indole-3-carboxamide], in series [1] (1 mg/kg), the Inference result is “Active”, the “Exploration time Familiar object” value stood at 13.61 ± 1.79 s and the “Exploration time Novel object” value worked out at 25.72 ± 3.67 s. Also, the fraction unbound at 6 h, 1 μM in series [2] (setting [4]) worked out at 0.128 ± 0.01. In addition, the fraction unbound at 6 h, 1 μM in series [2] (setting [5]) was found to be 0.779 ± 0.01. The fraction unbound at 6 h, 1 μM in series [2] (setting [6]) stood at 0.21 ± 0.01.
For `O=C(N[C@H]1CCCC[C@@H]1O)c1cn(Cc2ccnc(F)c2)c2cccc(F)c12` [Example 7, N-[(1S,2S)-2-Hydroxycyclohexyl]-1-(2-fluoropyridin-4-ylmethyl)-4-fluoro-1H-indole-3-carboxamide], the fraction unbound at 6 h, 1 μM worked out at 0.06 ± 0.004 in series [2] (setting [4]), 0.8 ± 0.04 in series [2] (setting [5]) and 0.2 ± 0.02 in series [2] (setting [6]).
In the case of `O=C(N[C@H]1CCCC[C@@H]1O)c1cn(Cc2ccnc(F)c2)c2c(F)ccc(F)c12` [Example 8, N-[(1S,2S)-2-Hydroxycyclohexyl]-1-(2-fluoropyridin-4-ylmethyl)-4,7-difluoro-1H-indole-3-carboxamide], the fraction unbound at 6 h, 1 μM in series [2] (setting [4]) is 0.0348 ± 0.0001; in series [2] (setting [5]) it was 0.606 ± 0.008; in series [2] (setting [6]) it was 0.089 ± 0.01. In addition, the figures for the sAPPα levels in series [3] (1.0 mg/kg), in series [3] (3.0 mg/kg) and in series [3] (10.0 mg/kg) were 120 ± 17 % of vehicle, 137 ± 14 % of vehicle and 173 ± 10 % of vehicle, respectively. Also, the Inference entry in series [3] is recorded as “Active”.
